The target in one data set is T1, SPOP (Homo sapiens, UniProt O43791).
T1 construct: purchased Abcam
As to the kind of experiment: SPOP fluorescence polarization (FP) competition assay with FITC-puc_SBC1. In kind it is binding. As to the method: The enzymatic activity of SPOP was determined by a previously described fluorescence polarization (FP) assay ([Guo et al., 2016]). FITC-labeled peptide substrate puc_SBC1 (FITC-puc_SBC1, FITC-[…]) was purchased (GL Biochem Ltd, Shanghai). Serial dilutions of competitors for SPOP23-337 were prepared from the 20 mM DMSO stocks. The diluted compound was added to the reaction mixture in 100 μl of HEPES (25 mM, pH 7.5) containing 10 μM SPOP and 50 nM FITC-puc_SBC1. After incubation for 1 h at 4°C, FP was measured on a microplate reader (Perkin Elemer) using the wavelengths of 480 nm for excitation and 535 nm for emission, respectively.
(§1) All experiments were performed in triplicate. Competition binding data were analyzed using GraphPad Prism 6.0 software (GraphPad Software Inc, San Diego, CA) and the inhibition constants (IC50) were calculated by nonlinear curve fitting.
In general terms: Fluorescence polarisation rises when a labelled molecule tumbles more slowly, as on binding a larger partner.

The next data set concerns the target T2, HDAC1 (Homo sapiens, UniProt Q13547).
T2 construct: purchased Abcam
As to the kind of experiment: In vitro HDAC1 inhibition, fluorescent substrate Boc-Lys(acetyl)-AMC. In kind it is biochemical. The method, then:
In the 96-well plates, different concentrations of the tested compound (50 μL) were added to 10 μl of HDAC1 enzyme solution. After incubation at 37°C for 5 min, 40 μl of the fluorescent substrate Boc-Lys (acetyl)-AMC was then added to the mixture. The plates were incubated at 37°C for 0.5 h, and the developer (100 μl) containing trypsin and TSA was added to the mixture. Finally, the fluorescence intensity at wavelengths of 390 nm and 460 nm was measured 20 min later by a microplate reader (Perkin Elemer).
as §1

The subject of another data set is 769-P cell. As to the kind of experiment: MTT cell growth inhibition, 769-P. In kind it is cell-based. The conditions noted are these: 72 h, read-out: 769-P cell proliferation IC50. As to the method:
(§2) According to the previously reported method ([Namwan et al., 2022]; [Zhao et al., 2023]), at a concentration of 5 × 10^4/ml, cell lines were planted in 96-well plates and cultivated for an entire night. The cells were incubated at 37 °C for 72 h while being exposed to various inhibitor concentrations. And then, MTT stock solution (5 mg/ml) was added to each well and incubated for an additional 4 h. Dimethyl sulfoxide (DMSO) was used to dissolve the insoluble crystals, and a microplate reader was used to detect absorbance at 570 nm. Survival ratio (%) was calculated using the following equation: survival ratio (%) = (A treatment /A control ) × 100%. Data were analyzed using the analysis software GraphPad Prism 6.0 software (GraphPad Software Inc., San Diego, CA), and the half-maximal inhibitory concentration (IC50) values were calculated by the dose-response curve visualized using nonlinear regression (curve fit).

The test system of the next data set is HCT-116 tumor cells. As to the kind of experiment: In vivo anticancer activity, HCT-116 xenograft. The conditions noted are these: six times; for tumor volume versus control group: HCT-116 xenograft, nude mice. As to the method: According to the previously reported in vivo inhibition method, we injected HCT-116 tumor cells (200 μl, 1 × 10^7 cells) into the right subcutaneous space of 6-week-old BALB/c nude mice (Experimental Animal Center of Yangzhou University (Yangzhou, China) ([Zheng et al., 2021]). All experimental protocols were approved by the Animal Ethics Committee of China Pharmaceutical University. When the tumors grew to 90–120 mm^3, the mice were randomly divided into three groups (five mice per group) and intraperitoneally administered with vehicle (PBS buffer pH 7.4, volume capacity: 0.2 ml), compound HS-2 (volume capacity: 0.2 ml in PBS vehicle, 5 mg/kg), and compound HS-2 (volume capacity: 0.2 ml in PBS vehicle, 10 mg/kg) every 3 days for a total of six times. Tumor volume and weight were measured every 3 days. Tumor volume was calculated using the formula (c × c × d)/2 (c, the smallest diameter; d, the largest diameter).

The subject of data set [1] is SPOP and HDAC levels in A498 cells. As to the kind of experiment: Western blot of SPOP and HDAC levels in A498 cells. In kind it is cell-based. The settings on record: A498 cells, 0, 0.5 and 2 μM, 72 h. The method, then:
(§3) The tumor cells (10^6 cells/well) were seeded onto 6-well plates and allowed to culture for 24 h. The cells were incubated with various concentrations (0, 0.5 and 2 μM) of HS-2 at 37°C for 72 h. Tumor cells were washed and lysed with RIPA. Protein samples were detected by western blot as described previously ([Zheng et al., 2021]).
Background: A western blot detects proteins with antibodies after separation by electrophoresis.

For data set [2], the system named is SPOP and HDAC levels in HCT-116 cells. As to the kind of experiment: Western blot of SPOP and HDAC levels in HCT-116 cells. Type of data set: cell-based. The conditions noted are these: HCT-116 cells, 0, 0.5 and 2 μM, 72 h. The method, then:
as §3

Another data set concerns OS-RC-2 cell. As to the kind of experiment: MTT cell growth inhibition, OS-RC-2. In kind it is cell-based. The settings on record: read-out: OS-RC-2 cell proliferation IC50. As to the method:
as §2

The mark [3] stands for this setting: FP, 10 μM SPOP, 50 nM FITC-puc_SBC1, triplicate.
Where [4] appears, read: 5 and 10 mg/kg intraperitoneally every 3 days.

“Also recorded” adds a separate entry of the source. Read-outs that look alike come from different tables or passages of the source. Where only a bound is given, the exact number is not on record here.

T1 sequence (O43791 23-337): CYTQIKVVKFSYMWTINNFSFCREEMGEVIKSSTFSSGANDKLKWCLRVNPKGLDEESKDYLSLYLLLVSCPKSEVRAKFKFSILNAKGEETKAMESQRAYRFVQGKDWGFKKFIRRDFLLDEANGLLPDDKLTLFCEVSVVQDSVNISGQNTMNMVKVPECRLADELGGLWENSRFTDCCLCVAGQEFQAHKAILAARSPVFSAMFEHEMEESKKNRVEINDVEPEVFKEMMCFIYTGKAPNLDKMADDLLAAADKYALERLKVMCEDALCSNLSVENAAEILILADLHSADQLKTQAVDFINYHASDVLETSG
T2 sequence (Q13547 whole entry): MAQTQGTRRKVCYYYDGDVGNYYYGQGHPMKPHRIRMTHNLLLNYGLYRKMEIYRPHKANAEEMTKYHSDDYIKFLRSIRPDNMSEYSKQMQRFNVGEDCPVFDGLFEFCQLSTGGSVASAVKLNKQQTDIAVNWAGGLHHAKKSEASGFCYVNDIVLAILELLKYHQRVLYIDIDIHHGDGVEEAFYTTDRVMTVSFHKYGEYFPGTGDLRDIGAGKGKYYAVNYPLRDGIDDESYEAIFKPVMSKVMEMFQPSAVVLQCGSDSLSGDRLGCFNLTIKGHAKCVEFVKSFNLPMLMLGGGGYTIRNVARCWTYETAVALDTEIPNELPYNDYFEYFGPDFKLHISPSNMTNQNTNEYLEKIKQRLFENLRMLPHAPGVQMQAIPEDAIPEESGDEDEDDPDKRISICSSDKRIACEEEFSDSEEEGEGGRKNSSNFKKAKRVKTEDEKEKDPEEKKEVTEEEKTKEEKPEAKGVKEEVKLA

Turning to `Cc1cccn2c(=O)c3cc(ONCCCCCC(=O)NO)c(=N)n(CCc4ccc(Cl)c(F)c4)c3nc12` [HS-3], the IC50 turned out to be 14.9 ± 1.2 µM at SPOP (setting [3]) and 0.0115 ± 0.0013 µM at HDAC1 (triplicate).

`Cc1cccn2c(=O)c3cc(ONCCCCCC(=O)NO)c(=N)n(CCc4cccs4)c3nc12` [HS-1]: the results for the IC50 at SPOP (setting [3]) and against HDAC1 (triplicate) were 18.3 ± 2.5 µM and 0.0137 ± 0.0011 µM, respectively.

Compound `Cc1cccn2c(=O)c3cc(C(=O)NCCCN4CCOCC4)c(=N)n(CCc4ccccc4)c3nc12` [SPOP-IN-6b, reference compound] had an IC50 at SPOP (setting [3]) of 34.6 ± 3.1 µM. The “HDAC1 (IC50, nM)” value at HDAC1 (triplicate) is listed as “without an inhibitory effect on HDAC1; also recorded: no binding”.

As for `O=C(CCCCCCC(=O)Nc1ccccc1)NO` [Vorinostat, reference compound], the “SPOP (IC50, μM)” value at SPOP (setting [3]) was “without affecting SPOP activity; also recorded: no binding”.

Take `Cc1cccn2c(=O)c3cc(ONCCCCCC(=O)NO)c(=N)n(CCc4ccc(C(F)(F)F)cc4)c3nc12` [HS-2]: the IC50 in the data set on 769-P cell is 5.2 ± 1.1 µM; in the data set with 769-P cell (Homo sapiens, 769-P) it was below 10 µM; on SPOP (setting [3]), 9.1 ± 0.7 µM; against HDAC1 (triplicate) it was 0.0076 ± 0.0004 µM; in the data set on OS-RC-2 cell (72 h), 9.3 ± 1.7 µM; in the data set with OS-RC-2 cell (Homo sapiens, OS-RC-2, 72 h), below 10 µM. Further, the “SPOP inhibitory effect relative to SPOP-IN-6b (IC50 ratio)” value at SPOP (versus positive control SPOP-IN-6b) is around 3.8 times. Moreover, the “tumor volume versus control group” value in the data set on HCT-116 tumor cells (5 mg/kg intraperitoneally every 3 days) and in the data set with HCT-116 tumor cells (10 mg/kg intraperitoneally every 3 days) was “significantly less tumor volume than the control group” throughout. The “body weight of mice” value with HCT-116 tumor cells (setting [4]) is on record as “no significant differences”. In addition, in the data set on HCT-116 tumor cells (setting [4]), the toxicity in vivo entry was “no significant toxicity”. Further, the “HDAC1 inhibitory effect relative to Vorinostat (IC50 ratio)” value on HDAC1 (versus positive control Vorinostat) is “about 1.1 times”. Further, the “HDAC level (western blot)” value in data set [1] and in data set [2] was “reduced” each time. In addition, the “SPOP level (western blot)” value in data set [1] and in data set [2] was “reduced” throughout.

For `CCN(CC)CCn1c(=N)c(ONCCCCCC(=O)NO)cc2c(=O)n3cccc(C)c3nc21` [HS-4], the IC50 came out at 23.2 ± 2.7 µM at SPOP (setting [3]) and 0.0184 ± 0.0019 µM against HDAC1 (triplicate).
